Measured values: US7803377B2, “Anti-DLL4 antibodies and methods using same” (Genentech, Inc., priority 2006, dated 2010)

Columns and labels:
[1] = test system: non-small lung cancer H1299 cells; assay: Tumor model H1299; assay type: in vivo, mouse; conditions: 5 mg/kg, IP, twice weekly after establishment of the tumors
Procedure: (§1) Tumor models. Beige nude female mice of 8- to 10-week-old were used. To obtain subcutaneous tumors, mice were injected with 0.1 ml cell suspension containing 50% matrigel (BD Bioscience) into the right posterior flank. 5×10^6 human colon cancer HM7 cells, 10×10^6 human colon carcinoma Colo205 cells, 10×10^6 human lung carcinoma Calu6 cells, 10×10^6 human lung carcinoma MV-522 cells, 10×10^6 mouse leukemia WEHI-3 cells, 10×10^6 mouse lymphoma EL4 cells, 10×10^6 human ovarian cancer SK-OV-3 X1 cells, 10×06 mouse lung cancer LL2 cells, 10×10^6 leukemia/lymphoma EL4 cells, or 10×10^6 non-small lung cancer H1299 cells were injected into each mouse. For human melanoma MDA-MB-435 model, mice were injected into the mammary fat pad with 0.1 ml cell (5×10^6) suspension containing 50% matrigel. […] For the following tumor models, each test mouse received a subcutaneous tumor fragment (1 mm^3) implanted in the right flank: non-small lung cancer SKMES-1, human breast cancer MX-1, human colorectal cancer SW620 and human adenocarcinoma LS174T. The tumor growth was quantitated by caliper measurements. Tumor volume (mm^3) was determined by measuring the length (l) and width (w) and calculating the volume (V=lw2/2). 10 to 15 animals were included in each group. Statistical comparison of treatment groups was performed using two-tailed Student's t-test. […]

retinal vasculature = assay: Mouse neonatal retina study; assay type: in vivo
Procedure: Mouse neonatal retina study. […] Eyes were collected on P5, and fixed with 4% PFA in PBS overnight. The dissected retinas were blocked with 10% goat serum in PBST for 3 hrs, then incubated overnight with primary antibodies. The primary cocktail included biotinylated isolectin B4 (25 μg/ml, Bandeiraea simplicifolia; Sigma), and one of the following: rabbit anti-mouse Ki67 (1:1, ready-to-use, clone Sp6, Lab Vision), or mouse Cy3-conjugated anti-alpha SMA (1:2000, Sigma-Aldrich), with 10% serum in PBLEC (1% Triton X-100, 0.1 mM CaCl2, 0.1 mM MgCl2, 0.1 mM MnCl2, in PBS pH6.8). Retinas were then washed in PBST, and incubated overnight with secondary antibody combination of Alexa Fluor® 488 streptavidin (1:200; Molecular Probes) and Cy3-anti-rabbit IgG (1:200; Jackson ImmunoResearch). After staining was completed, retinas were post fixed with 4% PFA in PBS. All overnight incubations were done at 4° C. Images of flat mounted retinas were captured by confocal fluorescence microscopy.
Early postnatal mouse retina develops a stereotypic vascular pattern in a well-defined sequence of events (Stone, J. & Dreher, Z. J Comp Neurol 255, 35-49 (1987); Gerhardt, H. et al. J Cell Biol 161, 1163-77 (2003); Fruttiger, M. Invest Opthalmol Vis Sci 43, 522-7 (2002)). […] Therefore, this hyperproliferative phenotype of retinal ECs upon DLL4 blockade in neonatal mice corroborated the in vitro findings.

[2] = test system: human ovarian cancer SK-OV-3 X1 cells; assay: Tumor model SK-OV-3X1; assay type: in vivo, mouse; conditions: 5 mg/kg, IP, twice weekly after establishment of the tumors
Procedure: as §1

HUVECs = assay: HUVEC fibrin gel bead assay; assay type: cell-based, human; conditions: anti-DLL4 antibody 5 μg/ml, DBZ 0.08 μM
Procedure: HUVEC fibrin gel bead assay. Details of the HUVEC fibrin gel bead assay have been described (Nakatsu, M. N. et al. Microvasc Res 66, 102-12 (2003)). Briefly, Cytodex™ 3 beads (Amersham Pharmacia Biotech) were coated with 350-400 HUVECs per bead. About 200 HUVEC-coated beads were imbedded in fibrin clot in one well of 12-well tissue culture plate. 8×10^4 SF cells were plated on top of the clot. Assays were terminated between day 7 and day 9 for immunostaining and imaging. In some experiments, HUVEC sprouts were visualized by staining with Biotin-anti-CD31 (clone WM59, eBioscience) and strepavidin-Cy3. For HUVEC nuclei staining, fibrin gels were fixed overnight in 2% paraformaldehyde (PFA), and stained with 4′,6-diamidino-2-phenylindole (DAPI, Sigma). For Ki67 staining, fibrin gels were treated with 10× trypsin-EDTA for 5 min to remove the top layer SF, neutralized with 10% FBS in PBS, and fixed overnight in 4% PFA. Fibrin gels were then blocked with 10% goat serum in PBST for 4 hr, incubated overnight with rabbit anti-mouse Ki67 (Ready-To-Use, clone Sp6, LabVision), followed by secondary detection with anti-rabbit IgG-Cy3 (Jackson ImmunoResearch). All overnight incubations were done at 4° C. […]

[3] = test system: SK-OV-3X1, LL2, EL4, H11299, SKMES-1, MX-1, SW620 and LS174T models; assay: Tumor models, combination of YW26.82 with anti-VEGF where tested; assay type: in vivo, mouse; conditions: YW26.82 5 mg/kg and anti-VEGF 5 mg/kg, IP, twice weekly; models where the combination was tested
Procedure: as §1

[4] = test system: non-small lung cancer SKMES-1; assay: Tumor model SKMES-1; assay type: in vivo, mouse; conditions: 5 mg/kg, IP, twice weekly after establishment of the tumors
Procedure: as §1

[5] = biological target: T1, endogenously expressed DLL4 (Homo sapiens, UniProt Q9NR61); assay: FACS analysis of HUVECs transfected with control or DLL4-specific siRNA; conditions: antibody 2 μg/ml, binding reduced with DLL4 siRNA
T1 construct: endogenous in cells; host or cells: HUVEC
Procedure: RNA interference. SMARTpool small interfering RNA (siRNA) duplexes targeting human DLL4 and Si Control Non-Target siRNA #2 were purchased from Dharmacon. Transfection of siRNR duplexes (50 nM) was done with HUVECs at 40% confluency using OptiMEM-1® and Lipfectamine™ 2000 (Invitrogen). FACS analysis was done 48 hr after siRNA transfection. The sequences of the 4 anti-DLL4 SMART pool siRNA were as follows:
FACS analysis of HUVECs transfected with control or DLL4-specific siRNA.

[6] = neonatal CD1 mice, 10 mg/kg i.p. on P1 and P3, eyes collected P5
[7] = neonatal mice, 10 mg/kg i.p. on P1 and P3

In the case of “YW26.82: affinity matured anti-DLL4 monoclonal antibody; HVR-H1/H2/H3 SEQ ID NO:1, 8, 9; HVR-L1/L2/L3 SEQ ID NO:10, 11, 18”, the “tumor growth, single agent” value [1] is reported as “inhibited tumor growth alone”, the “Ki67 labeling in retinal ECs” value (retinal vasculature; [6]) is reported as “significant increase of Ki67 labeling in ECs” and the “accumulation of ECs in neonatal retina” value (retinal vasculature; [6]) is reported as “massive accumulation of ECs”. For the same substance, the “anti-α smooth muscle actin (ASMA) staining of retinal arteries” value (retinal vasculature; [7]) was “completely absent”, the “pattern of radially alternating arteries and veins in retina” value (retinal vasculature; [7]) was “severely disrupted” and the “tumor growth, single agent” value [2] was “inhibited tumor growth alone”. For the same substance, the “HUVEC sprouting (length and number of sprouts)” value (HUVECs; fibrin gel with co-cultured SF cells) was “markedly increased the length and number of sprouts”, the “Ki67 staining, HUVEC proliferation” value (HUVECs; fibrin gel) was “caused hyperproliferation of HUVECs” and the “efficacy in combination with anti-VEGF” value [3] was “enhanced efficacy”. The “tumor growth, single agent” value [4] was “inhibited tumor growth alone” and the “binding to endogenously expressed DLL4 by FACS” value [5] was “specifically bound to endogenously expressed DLL4”.
